In patent publication US5569456A, “Biologically active rupununines” (priority 1994, dated 1996):

Legend:
[1] = Stability of rupununine crystals under nitrogen at room temperature; format: physicochemical; conditions: crystals kept under nitrogen at room temperature, prolonged periods
Procedure: (§1) Rupununine (100 mg.) was dissolved in the minimum volume of distilled acetone (2 ml). The solution was warmed gently, filtered and then left in the refrigerator overnight. This produced white needles which were recrystallized in acetone giving crystalline rupununine (45 mg.). Further crystalline samples were also obtained by the same treatment with acetone, of Fraction C.1 and C.2. The crystals were dried in a drying pistol under nitrogen, over phosphorus pentoxide at 60° C. overnight. […] The crystals melted between 214°-217° C., and were fairly stable, if kept under nitrogen at room temperature, even for prolonged periods.

[2] = Solubility of crystalline rupununine in organic solvents; format: physicochemical; conditions: crystalline white solid
Procedure: as §1

## rupununine
[1]
  stability: fairly stable
[2]; chloroform
  solubility in chloroform: fairly soluble
[2]; ethanol
  solubility in ethanol: fairly soluble
[2]; ether
  solubility in ether: only partially soluble
[2]; methanol
  solubility in methanol: fairly soluble
